The results in this text go back to US20220370440A1 (Lead Discovery Center GmbH, priority 2018, published 2022).

A value given as a limit tells only on which side of the number the result lay.

One data set concerns the target T1, HER2 INS YVMA (Homo sapiens, UniProt P04626, INS775YVMA).
T1 construct: purchased DPF
Kind of data set: Lance Kinase Activity Assay, HER2 INS YVMA (Her2 Exon 20 INSYVMA Lance). It counts as biochemical. The settings on record: biochemical Lance assay. Summed up: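 IC50 was fitted to sigmoidal curves of TR-FRET signal (665 and 615 nm emission after 340 nm excitation) from an Eu anti-phospho antibody binding the phosphorylated ULight peptide. The ATP-started reaction ran 1 h at RT and was then quenched with 10 mM EDTA plus antibody for a further 1 h. Compounds were tested as 8-point, 3-fold dilutions.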

Data set [1] concerns the target Her2 Exon 20 INSYVMA Ba/F3 (Homo sapiens, UniProt P04626, DUP772-775, cells depend on it). Kind of data set: Her2 Exon 20 INSYVMA Ba/F3 CellTiter-Glo. It is filed as cell-based. The following applies: CellTiter-Glo, 72 h, read-out: Her2 Exon 20 INSYVMA Ba/F3 CTG IC50. An outline of the steps:
(§1)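 ATP-based luminescence (CellTiter-Glo) after 72 h compound exposure gives viability; IC50 from dose-response fit. Cells seeded 24 h ahead at 37 °C, 5% CO2. Controls: DMSO vehicle and 10 μM staurosporine; runs kept only if Z′ ≥0.5.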
On the technique in general: ATP-based viability assays read luminescence as a measure of living cells.

For data set [2], the target named is EGFR Exon 20 INSNPH Ba/F3 (Homo sapiens, UniProt P00533, DUP771-773, cells depend on it). Kind of data set: EGFR Exon 20 INSNPH Ba/F3 CellTiter-Glo. It is filed as cell-based. The following applies: CellTiter-Glo, 72 h, read-out: EGFR Exon 20 INSNPH Ba/F3 CTG IC50. An outline of the steps:
as §1

The target of the next data set is EGFR T790ML858R (Homo sapiens, UniProt P00533, L858R/T790M). Kind of data set: EGFR T790ML858R Lance assay. It counts as biochemical. On the procedure: (§2) Inhibition is indicated as […] [nM] (“−”=not measured). Compounds having an activity designated as “A” provided an IC50≤100 nM; compounds having an activity designated as “B” provided an 100 nM<IC50≤500 nM; compounds having an activity designated as “C” provided an 500 nM<IC50≤1000 nM; compounds having an activity designated as “D” provided an 1000 nM<IC50≤100000 nM; and compounds having an activity designated as “E” provided an IC50>10000 nM.
EGFR T790ML858R, sequence (P00533 25-1210 T790M/L858R): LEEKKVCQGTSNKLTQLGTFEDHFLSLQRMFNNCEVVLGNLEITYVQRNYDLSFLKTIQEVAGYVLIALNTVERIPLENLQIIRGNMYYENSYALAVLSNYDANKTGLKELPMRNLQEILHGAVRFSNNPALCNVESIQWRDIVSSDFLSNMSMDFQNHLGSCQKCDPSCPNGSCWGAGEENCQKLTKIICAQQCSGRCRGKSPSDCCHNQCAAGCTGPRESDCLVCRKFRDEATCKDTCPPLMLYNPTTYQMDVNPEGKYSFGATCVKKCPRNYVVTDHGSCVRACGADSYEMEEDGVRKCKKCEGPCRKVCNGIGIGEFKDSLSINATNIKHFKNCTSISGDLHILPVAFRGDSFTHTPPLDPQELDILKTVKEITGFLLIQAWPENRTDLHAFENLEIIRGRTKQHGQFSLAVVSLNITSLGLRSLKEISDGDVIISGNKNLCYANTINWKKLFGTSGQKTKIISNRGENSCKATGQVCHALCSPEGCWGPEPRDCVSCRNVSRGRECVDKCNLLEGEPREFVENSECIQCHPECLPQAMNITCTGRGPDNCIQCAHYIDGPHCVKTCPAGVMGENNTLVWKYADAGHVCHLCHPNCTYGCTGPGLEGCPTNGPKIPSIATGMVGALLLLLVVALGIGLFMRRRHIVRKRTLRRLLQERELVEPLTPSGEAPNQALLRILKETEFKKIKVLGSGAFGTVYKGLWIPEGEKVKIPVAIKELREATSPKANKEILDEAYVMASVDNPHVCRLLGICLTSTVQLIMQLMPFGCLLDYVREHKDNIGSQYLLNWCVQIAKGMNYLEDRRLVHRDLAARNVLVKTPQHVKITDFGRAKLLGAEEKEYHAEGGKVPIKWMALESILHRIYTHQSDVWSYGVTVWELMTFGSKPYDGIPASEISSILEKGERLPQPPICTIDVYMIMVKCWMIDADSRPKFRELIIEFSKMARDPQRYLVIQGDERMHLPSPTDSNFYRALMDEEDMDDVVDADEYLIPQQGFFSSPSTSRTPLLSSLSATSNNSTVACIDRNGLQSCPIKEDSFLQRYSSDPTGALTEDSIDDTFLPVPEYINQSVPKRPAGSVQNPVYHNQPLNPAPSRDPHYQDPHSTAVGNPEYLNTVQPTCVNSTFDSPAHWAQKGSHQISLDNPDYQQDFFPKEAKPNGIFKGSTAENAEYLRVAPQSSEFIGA

The target of the next data set is EGFR wt (Homo sapiens, UniProt P00533). Kind of data set: EGFR wt Lance assay. It counts as biochemical. On the procedure:
as §2

The test system of a further data set is H1975. Kind of data set: H1975 CellTiter-Glo. The settings on record: Homo sapiens, NCI-H1975; 72 h compound incubation; read-out: H1975 CTG IC50. It counts as cell-based. Summed up: (§3)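 ATP-based luminescent viability read after 72 h compound exposure (DMSO vehicle, range of concentrations), cells plated 24 h beforehand at 37° C, 5% CO2. IC50 by dose-response fitting; 10 μM Staurosporine and DMSO controls, Z′-factor ≥0.5 required.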

Another data set relates to A431. Kind of data set: A431 CellTiter-Glo. The following applies: Homo sapiens, A-431; 72 h compound incubation; read-out: A431 CTG IC50. It counts as cell-based. An outline of the steps: as §3
The nature of data set [3]: Metabolic stability in mouse liver microsomes without cofactor NADPH. It counts as in vitro ADME. The following applies: 3 μM test compound, mouse liver microsomes, without NADPH, 50 min, 37° C., LC-MS/MS. An excerpt: There are two major groups of enzyme reactions catalyzed by drug metabolizing enzymes, the so called Phase I and Phase II reactions. The basic processes in phase I reactions are oxidation, reduction and/or hydrolysis mostly catalyzed by the cytochrome P450 (CYP) family of enzymes.
The following procedures describe the determination of the in vitro Phase I metabolic stability of test compounds using liver microsomes by measuring compound depletion over time. Test compound at the concentration of 3 μM was incubated with the liver microsomes from the mouse species and the experiment was performed without NADPH. The depletion of the test compounds was measured over time up to 50 minutes at 37° C. by LC-MS/MS. Different compounds were tested under these conditions for microsomal stability (see Table 5).
Background: Liver microsomes are a subcellular fraction often used to study metabolism.

T1 sequence (P04626 with tags, fused parts or gaps INS775YVMA): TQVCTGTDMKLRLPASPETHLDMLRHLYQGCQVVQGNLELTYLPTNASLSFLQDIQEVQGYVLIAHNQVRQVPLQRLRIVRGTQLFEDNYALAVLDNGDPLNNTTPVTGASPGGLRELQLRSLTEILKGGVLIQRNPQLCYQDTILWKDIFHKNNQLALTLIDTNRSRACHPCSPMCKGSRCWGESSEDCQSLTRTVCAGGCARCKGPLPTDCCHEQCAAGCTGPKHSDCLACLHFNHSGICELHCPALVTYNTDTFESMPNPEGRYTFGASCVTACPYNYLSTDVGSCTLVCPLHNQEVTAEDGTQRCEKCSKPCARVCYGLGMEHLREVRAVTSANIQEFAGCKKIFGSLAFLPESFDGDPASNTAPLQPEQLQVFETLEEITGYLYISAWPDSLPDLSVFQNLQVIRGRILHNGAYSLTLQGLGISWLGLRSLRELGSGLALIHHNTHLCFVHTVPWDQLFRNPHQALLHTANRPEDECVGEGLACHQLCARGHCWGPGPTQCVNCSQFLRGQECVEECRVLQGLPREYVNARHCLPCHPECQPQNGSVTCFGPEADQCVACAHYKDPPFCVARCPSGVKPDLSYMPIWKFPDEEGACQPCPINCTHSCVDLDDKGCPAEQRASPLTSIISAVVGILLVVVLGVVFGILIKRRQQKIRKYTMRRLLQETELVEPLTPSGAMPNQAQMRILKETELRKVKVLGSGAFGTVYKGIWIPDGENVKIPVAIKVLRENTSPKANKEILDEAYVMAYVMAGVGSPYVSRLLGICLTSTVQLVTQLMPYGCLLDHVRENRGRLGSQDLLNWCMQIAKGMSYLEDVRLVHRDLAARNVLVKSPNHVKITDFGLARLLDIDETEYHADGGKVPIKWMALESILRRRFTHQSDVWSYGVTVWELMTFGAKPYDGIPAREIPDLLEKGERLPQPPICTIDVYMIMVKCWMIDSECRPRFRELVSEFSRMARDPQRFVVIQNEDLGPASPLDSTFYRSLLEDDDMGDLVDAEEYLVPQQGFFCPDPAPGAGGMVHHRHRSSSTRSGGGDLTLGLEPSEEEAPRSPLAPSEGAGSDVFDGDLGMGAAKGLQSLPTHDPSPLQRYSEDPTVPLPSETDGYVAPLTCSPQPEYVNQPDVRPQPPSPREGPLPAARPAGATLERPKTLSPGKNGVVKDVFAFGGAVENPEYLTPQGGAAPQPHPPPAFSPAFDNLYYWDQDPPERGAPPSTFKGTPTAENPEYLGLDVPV
EGFR wt, sequence (P00533 25-1210): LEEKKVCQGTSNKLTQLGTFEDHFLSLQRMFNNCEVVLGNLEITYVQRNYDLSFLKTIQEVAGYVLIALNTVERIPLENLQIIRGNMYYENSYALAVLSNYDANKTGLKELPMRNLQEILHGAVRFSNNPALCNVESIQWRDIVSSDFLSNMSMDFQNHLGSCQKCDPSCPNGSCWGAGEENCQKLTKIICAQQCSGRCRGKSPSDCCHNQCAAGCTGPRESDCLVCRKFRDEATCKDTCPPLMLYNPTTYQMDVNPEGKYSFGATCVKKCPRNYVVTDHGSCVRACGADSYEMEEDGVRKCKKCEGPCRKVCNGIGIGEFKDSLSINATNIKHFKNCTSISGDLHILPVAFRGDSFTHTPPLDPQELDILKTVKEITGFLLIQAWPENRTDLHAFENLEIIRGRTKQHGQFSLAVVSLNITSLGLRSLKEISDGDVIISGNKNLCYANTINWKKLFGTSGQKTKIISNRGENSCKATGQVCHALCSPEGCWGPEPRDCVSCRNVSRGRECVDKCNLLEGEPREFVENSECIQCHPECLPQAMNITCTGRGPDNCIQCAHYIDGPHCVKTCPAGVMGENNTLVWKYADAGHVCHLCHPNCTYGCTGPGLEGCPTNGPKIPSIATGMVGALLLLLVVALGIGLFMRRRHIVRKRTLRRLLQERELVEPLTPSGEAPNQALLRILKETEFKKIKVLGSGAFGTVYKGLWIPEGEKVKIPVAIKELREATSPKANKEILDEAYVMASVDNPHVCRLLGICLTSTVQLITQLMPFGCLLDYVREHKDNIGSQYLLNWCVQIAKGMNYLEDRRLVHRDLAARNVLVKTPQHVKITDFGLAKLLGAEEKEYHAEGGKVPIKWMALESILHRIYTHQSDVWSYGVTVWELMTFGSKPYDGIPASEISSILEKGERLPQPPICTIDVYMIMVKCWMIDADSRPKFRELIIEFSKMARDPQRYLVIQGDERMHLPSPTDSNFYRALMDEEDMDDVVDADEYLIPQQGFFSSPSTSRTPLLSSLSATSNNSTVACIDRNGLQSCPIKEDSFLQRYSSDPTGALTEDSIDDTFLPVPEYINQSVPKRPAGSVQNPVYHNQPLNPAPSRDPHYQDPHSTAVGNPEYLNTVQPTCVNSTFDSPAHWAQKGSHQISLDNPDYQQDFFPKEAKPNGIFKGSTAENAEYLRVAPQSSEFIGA
Her2 Exon 20 INSYVMA Ba/F3, sequence (P04626 with tags, fused parts or gaps DUP772-775): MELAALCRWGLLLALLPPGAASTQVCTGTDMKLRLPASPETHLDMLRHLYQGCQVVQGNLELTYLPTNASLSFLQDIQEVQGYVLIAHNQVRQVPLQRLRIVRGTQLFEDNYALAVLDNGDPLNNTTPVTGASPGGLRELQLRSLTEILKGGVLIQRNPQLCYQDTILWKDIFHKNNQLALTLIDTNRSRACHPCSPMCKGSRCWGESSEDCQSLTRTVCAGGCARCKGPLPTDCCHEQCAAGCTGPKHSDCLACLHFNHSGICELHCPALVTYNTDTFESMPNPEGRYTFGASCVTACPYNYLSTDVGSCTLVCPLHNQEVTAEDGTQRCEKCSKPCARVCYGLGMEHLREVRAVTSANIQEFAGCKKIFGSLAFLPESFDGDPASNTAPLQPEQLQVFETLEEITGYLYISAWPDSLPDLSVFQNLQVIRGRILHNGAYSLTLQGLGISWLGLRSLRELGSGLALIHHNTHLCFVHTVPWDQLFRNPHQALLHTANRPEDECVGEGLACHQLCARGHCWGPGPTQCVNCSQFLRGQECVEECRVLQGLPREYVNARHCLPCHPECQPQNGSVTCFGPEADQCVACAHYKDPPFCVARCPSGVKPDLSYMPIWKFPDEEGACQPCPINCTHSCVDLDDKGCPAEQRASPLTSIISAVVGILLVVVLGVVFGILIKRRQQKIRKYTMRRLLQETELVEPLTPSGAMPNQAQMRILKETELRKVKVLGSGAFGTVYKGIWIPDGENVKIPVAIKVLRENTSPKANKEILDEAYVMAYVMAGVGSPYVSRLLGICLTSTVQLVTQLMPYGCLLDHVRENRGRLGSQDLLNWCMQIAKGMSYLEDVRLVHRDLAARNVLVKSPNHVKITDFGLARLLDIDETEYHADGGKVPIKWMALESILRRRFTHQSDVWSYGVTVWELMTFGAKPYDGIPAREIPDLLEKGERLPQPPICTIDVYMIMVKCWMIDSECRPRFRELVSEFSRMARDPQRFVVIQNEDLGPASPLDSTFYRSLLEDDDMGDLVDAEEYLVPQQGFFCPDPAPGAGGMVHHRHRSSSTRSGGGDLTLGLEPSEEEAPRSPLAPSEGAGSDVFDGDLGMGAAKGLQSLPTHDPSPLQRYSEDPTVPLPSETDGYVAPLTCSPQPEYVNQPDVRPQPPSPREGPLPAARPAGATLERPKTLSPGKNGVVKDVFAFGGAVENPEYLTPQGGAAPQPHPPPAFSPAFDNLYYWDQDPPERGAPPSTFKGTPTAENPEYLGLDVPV

With `C=CC(=O)Nc1cc(-c2c(-c3ccc(N4CCN(C)CC4)nc3)[nH]c3nccc(Cl)c23)ccc1C` [Example 19, N-(5-(4-chloro-2-(6-(4-methylpiperazin-1-yl)pyridin-3-yl)-1H-pyrrolo[2,3-b]pyridin-3-yl)-2-methylphenyl)acrylamide], the half-maximal inhibitory concentration (IC50) (commonly the concentration that gives 50% inhibition) at HER2 INS YVMA was 100 to 500 nM; on EGFR T790ML858R, not above 100 nM; against EGFR wt, not above 100 nM; in the data set on H1975 it was 100 to 500 nM; with A431 it was 1000 to 100000 nM. Further, the GI50 in data set [1] and in data set [2] was 500 to 1000 nM each time. The “Stability in presence of mouse liver microsomes without cofactor NADPH [% remaining after 50 min]” value in data set [3] is listed as more than 99 % remaining after 50 min.
Turning to `C=CC(=O)Nc1cc(-c2c(-c3cccc(OCCCN(C)C)c3)[nH]c3nccc(Cl)c23)ccc1C` [Example 20, N-(5-(4-chloro-2-(3-(3-(dimethylamino)propoxy)phenyl)-1H-pyrrolo[2,3-b]pyridin-3-yl)-2-methylphenyl)acrylamide], the IC50 against HER2 INS YVMA, on EGFR T790ML858R, against EGFR wt and in the data set on H1975 was not above 100 nM throughout. Also, the GI50 in data set [1] and in data set [2] was 500 to 1000 nM in each case. In addition, in data set [3], the “Stability in presence of mouse liver microsomes without cofactor NADPH [% remaining after 50 min]” value is on record as more than 99 % remaining after 50 min.
Consider `C=CC(=O)Nc1cc(-c2c(-c3ccc(N4CCN(C)CC4)cc3OC)[nH]c3nccc(Cl)c23)ccc1C` [Example 21, N-(5-(4-chloro-2-(2-methoxy-4-(4-methylpiperazin-1-yl)phenyl)-1H-pyrrolo[2,3-b]pyridin-3-yl)-2-methylphenyl)acrylamide], for which the IC50 at HER2 INS YVMA is 100 to 500 nM; on EGFR T790ML858R it was not above 100 nM; on EGFR wt, not above 100 nM; with H1975 it was not above 100 nM. The GI50 in data set [1] and in data set [2] was 500 to 1000 nM each time. Also, the “Stability in presence of mouse liver microsomes without cofactor NADPH [% remaining after 50 min]” value in data set [3] is recorded as 93 % remaining after 50 min.
For the compound `C=CC(=O)Nc1cc(-c2c(-c3cccc(CN4CCN(C(C)=O)CC4)c3)[nH]c3nccc(Cl)c23)ccc1C` [Example 22, N-(5-(2-(3-((4-acetylpiperazin-1-yl)methyl)phenyl)-4-chloro-1H-pyrrolo[2,3-b]pyridin-3-yl)-2-methylphenyl)acrylamide], the IC50 was 100 to 500 nM at HER2 INS YVMA, not above 100 nM against EGFR T790ML858R, 100 to 500 nM against EGFR wt and 100 to 500 nM in the data set with H1975. The GI50 in data set [1] lay in the range of 500 to 1000 nM; in data set [2], 1000 to 10000 nM. Besides, the “Stability in presence of mouse liver microsomes without cofactor NADPH [% remaining after 50 min]” value in data set [3] was more than 99 % remaining after 50 min.
On to `C=CC(=O)Nc1cc(-c2c(-c3cncnc3)[nH]c3nccc(Cl)c23)ccc1C` [Example 24, N-(5-(4-chloro-2-(pyrimidin-5-yl)-1H-pyrrolo[2,3-b]pyridin-3-yl)-2-methylphenyl)acrylamide], for which the IC50 against HER2 INS YVMA is 100 to 500 nM; on EGFR T790ML858R, not above 100 nM; against EGFR wt it was 100 to 500 nM; in the data set with H1975, 100 to 500 nM. In addition, the GI50 in data set [1] and in data set [2] was 500 to 1000 nM in each case. In data set [3], the “Stability in presence of mouse liver microsomes without cofactor NADPH [% remaining after 50 min]” value was more than 99 % remaining after 50 min.
As to `C=CC(=O)Nc1cc(-c2c(-c3cccc(C(=O)N4CCOCC4)c3)[nH]c3nccc(Cl)c23)ccc1C` [Example 27, N-(5-(4-chloro-2-(3-(morpholine-4-carbonyl)phenyl)-1H-pyrrolo[2,3-b]pyridin-3-yl)-2-methylphenyl)acrylamide], the IC50 against HER2 INS YVMA is 500 to 1000 nM; on EGFR T790ML858R, not above 100 nM; against EGFR wt it was 100 to 500 nM; in the data set on H1975, 100 to 500 nM. In addition, the GI50 in data set [1] and in data set [2] was 1000 to 10000 nM each time. Further, the “Stability in presence of mouse liver microsomes without cofactor NADPH [% remaining after 50 min]” value in data set [3] is listed as more than 99 % remaining after 50 min.
Regarding `C=CC(=O)Nc1cc(-c2c(-c3ccc(C4CCNCC4)cc3)[nH]c3nccc(Cl)c23)ccc1C` [Example 29, N-(5-(4-chloro-2-(4-(piperidin-4-yl)phenyl)-1H-pyrrolo[2,3-b]pyridin-3-yl)-2-methylphenyl)acrylamide], the IC50 against HER2 INS YVMA, against EGFR T790ML858R, at EGFR wt and with H1975 was not above 100 nM in each case. Further, the GI50 in data set [1] and in data set [2] was 500 to 1000 nM throughout. Moreover, in data set [3], the “Stability in presence of mouse liver microsomes without cofactor NADPH [% remaining after 50 min]” value is reported as more than 99 % remaining after 50 min.
For `C=CC(=O)Nc1cc(-c2c(-c3ccc(N4CCOCC4)nc3)[nH]c3nccc(Cl)c23)ccc1C` [Example 30, N-(5-(4-chloro-2-(6-morpholinopyridin-3-yl)-1H-pyrrolo[2,3-b]pyridin-3-yl)-2-methylphenyl)acrylamide], the IC50 against HER2 INS YVMA is 100 to 500 nM; at EGFR T790ML858R, not above 100 nM; against EGFR wt, not above 100 nM; with H1975, 100 to 500 nM. For the same compound, the GI50 in data set [1] lay within 1000 to 10000 nM; in data set [2], 500 to 1000 nM. In data set [3], the “Stability in presence of mouse liver microsomes without cofactor NADPH [% remaining after 50 min]” value is listed as more than 99 % remaining after 50 min.
For `C=CC(=O)Nc1cc(-c2c(-c3ccc(N4CCN(C(C)=O)CC4)nc3)[nH]c3nccc(Cl)c23)ccc1C` [Example 31, N-(5-(2-(6-(4-acetylpiperazin-1-yl)pyridin-3-yl)-4-chloro-1H-pyrrolo[2,3-b]pyridin-3-yl)-2-methylphenyl)acrylamide], the IC50 at HER2 INS YVMA is 100 to 500 nM; against EGFR T790ML858R it was not above 100 nM; against EGFR wt, 500 to 1000 nM; in the data set on H1975 it was 100 to 500 nM. The GI50 in data set [1] and in data set [2] was 1000 to 10000 nM in each case. The “Stability in presence of mouse liver microsomes without cofactor NADPH [% remaining after 50 min]” value in data set [3] is given as more than 99 % remaining after 50 min.
Regarding `C=CC(=O)Nc1cc(-c2c(-c3ccnc(N4CCOCC4)c3)[nH]c3nccc(Cl)c23)ccc1C` [Example 32, N-(5-(4-chloro-2-(2-morpholinopyridin-4-yl)-1H-pyrrolo[2,3-b]pyridin-3-yl)-2-methylphenyl)acrylamide], the half-maximal inhibitory concentration (IC50) was 100 to 500 nM on HER2 INS YVMA, not above 100 nM on EGFR T790ML858R, not above 100 nM against EGFR wt and not above 100 nM in the data set with H1975. Moreover, the GI50 in data set [1] and in data set [2] was 500 to 1000 nM each time. Moreover, the “Stability in presence of mouse liver microsomes without cofactor NADPH [% remaining after 50 min]” value in data set [3] is reported as more than 99 % remaining after 50 min.
For the compound `C=CC(=O)Nc1cc(-c2c(-c3cnc(N4CCOCC4)nc3)[nH]c3nccc(Cl)c23)ccc1C` [Example 36, N-(5-(4-chloro-2-(2-morpholinopyrimidin-5-yl)-1H-pyrrolo[2,3-b]pyridin-3-yl)-2-methylphenyl)acrylamide], the IC50 against HER2 INS YVMA was 500 to 1000 nM; at EGFR T790ML858R, not above 100 nM; on EGFR wt, not above 100 nM; in the data set on H1975, 100 to 500 nM; with A431, 1000 to 100000 nM. In addition, the GI50 in data set [1] and in data set [2] was 1000 to 10000 nM each time. The “Stability in presence of mouse liver microsomes without cofactor NADPH [% remaining after 50 min]” value in data set [3] was more than 99 % remaining after 50 min.
As to `C=CC(=O)Nc1cc(-c2c(-c3ccc(C4CCN(C)CC4)cc3)[nH]c3nccc(OCC)c23)ccc1C` [Example 147, 2,2,2-trifluoroacetate], the IC50 on HER2 INS YVMA, on EGFR T790ML858R, at EGFR wt and in the data set on H1975 was not above 100 nM in each case. Also, the GI50 in data set [1] and in data set [2] was 500 to 1000 nM throughout. In addition, the “Stability in presence of mouse liver microsomes without cofactor NADPH [% remaining after 50 min]” value in data set [3] is listed as 94 % remaining after 50 min.
